Measured values published in US20240252560A1, “LACTOBACILLUS RHAMNOSUS-DERIVED VESICLE AND USES THEREOF” (MD HEALTHCARE INC., priority 2021, published 2024).

Test system: AMPK
Assay: AMPK activation (pAMPK Western blotting) in muscle cells
Format: cell-based
Settings: 1 hour, vesicles 0, 0.1, 1, 10 μg/ml, metformin 10 μg/ml
Protocol: Therefore, an experiment was performed in the following manner to evaluate the effect of Lactobacillus rhamnosus-derived vesicles (MDH-003) on cellular aging through AMPK activation within cells. That is, to evaluate AMPK activity according to the concentration of Lactobacillus rhamnosus-derived vesicles in muscle cells, cells were treated with Lactobacillus rhamnosus-derived vesicles at concentrations of 0, 0.1, 1, and 10 μg/ml for 1 hour. As a control group, metformin, which suppresses aging, was used at a concentration of 10 μg/ml. After treating the cells with the drug, the difference in the amount of pAMPK, which is an important indicator in AMPK signaling, was measured by Western blotting.

## CN(C)C(=N)N=C(N)N [metformin]
  phosphorylation of AMPK (pAMPK): enhanced
